# Experimental data as given in patent publication US4157392A, “Pharmacologically active substituted 1,2,4-triazines” (Diamond Shamrock Corporation, priority 1978, dated 1979).
# Where two headings read alike, the source gives them in different places.
# Key:
# [1] = test system: Spontaneously hypertensive rats; assay: SHR Assay (anti-hypertensive); type: in vivo, rat (spontaneously hypertensive); settings: for Mean Drop (systolic blood pressure): dose 100, oral
# Procedure: Spontaneously hypertensive rats, 12 to 16 weeks of age, were used in this assay. Systolic blood pressures were determined by the tail cuff method, utilizing capacitance transducers for the detection of pressure, an aneroid manometer for measuring pressure, and an oscilloscope for visualizing the disappearance and/or appearance of the pressure pulse. Heart rate was measured by a biotachometer. Groups of five rats having systolic blood pressures of 170 mmHg or greater were chosen and the test compounds administered at the doses indicated below (oral) as a solution or suspension in 0.25% methylcellulose (MC) at a volume of 5 ml/kg. One group served as the control and received the vehicle. Twenty-four hours after dosing, systolic blood pressure and heart rate were recorded. A second dose of compound was administered and blood pressure and heart rate determined at 4 and 24 hours after the second dose.
# [2] = test system: phenylquinone writhing in mice; assay: Phenylquinone Writhing Assay (analgesia); type: in vivo, mouse (Carworth CF1 male mice); settings: for responders at 12.5 mg/kg: 12.5 mg/kg oral; for responders at 25 mg/kg: 25 mg/kg oral; for responders at 50 mg/kg: 50 mg/kg oral; for responders at 15 mg/kg: 15 mg/kg oral; for responders at 10 mg/kg: 10 mg/kg oral
# How it was run: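 Male CF1 mice (ten per group) dosed orally in 0.25% methylcellulose, then challenged i.p. with 0.02% phenylquinone at 15, 30, 60 or 120 min post-dose. Mice showing no writhing over 10 min count as protected; percent analgesia = number protected ×10.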
# [3] = test system: carrageenin-induced edema in the hind paw of a rat; assay: Carrageenin Assay (carrageenin-induced edema, hind paw); type: in vivo, rat (male, Long Evans strain); settings: 1 h before carrageenin, edema at 3 h, compared to phenylbutazone control values; for inhibition in vivo at 40 mg/kg: 40 mg/kg oral
# Procedure: The procedure employed is a modification of the method of Winter et al, Proc. Soc. Exptl. Biol. Med. 111:544 (1962). The device used for measurement of the paw volume is an adaptation of the water displacement procedure described by Adamkiewicz et al, Can. J. Biochem. Physiol. 33:332 (1955). Test compounds were administered orally, one hour prior to the intraplantar injection of 0.05 ml. of sterile 1.0 percent solution of carrageenin into the left hind paw of male rats (Long Evans strain) weighing between about 130-200 grams. At peak swelling time (3 hours) the volume of edema was calculated by differential paw volumes.
# Table I sets forth the results obtained (indicated as percent reduction of edema compared to phenylbutazone control values) at the indicated dosages for each of the identified compounds.
# tuberculostatic = settings: in vitro (J. Chem. Soc., 1956, 713-16); cited from earlier work
# yeast induced fever = assay: Antipyretic Assay (yeast induced fever); type: in vivo; settings: for temps. at 191/2 hrs. / temps. at 18 hrs. (Test Compounds Administered) / temps. at 0 hr.: 100 mg/kg; for temps. at 191/2 hrs.: 1 1/2 hrs. after administration; for temps. at 18 hrs. (Test Compounds Administered): at time of administration; for temps. at 0 hr.: before yeast fever and compound
# Procedure: As indicated previously, certain of the compounds of the invention also display excellent antipyretic activity. […] Antipyretic activity was measured utilizing the conventional yeast induced fever assay procedure (15% yeast solution injected at two sites).
# [4] = test system: adjuvant-induced arthritis, hind paw of the rat; assay: Adjuvant-Arthritis Assay; type: in vivo
# antihypertensive = settings: Burger, Medicinal Chemistry, 3rd Ed., 1027; cited from earlier work
# [5] = test system: central nervous system activity in mice; assay: Neuropharmacological Profile; type: in vivo, mouse (white male Carworth Farm Strain CF-1); settings: 300,100,30,10 mg/kg intraperitoneal
# Procedure: The central nervous system activity of certain of the preferred compounds in accordance with the present invention were determined using the following neuropharmacological profile assay procedures.
# White male mice of the Carworth Farm Strain (CF-1) weighing 18-22 grams were used in these determinations. […] Intraperitoneal injections were administered in logarithmic progression and sequentially. The dose levels employed routinely are 10, 30, 100, and 300 mg/kg, using four male mice at each dose level. Since this test was conducted in a sequential manner, the first dose administered was at 300 mg/kg. The mice were injected at this dose level and observed for gross changes produced by the drug, such as behavioral, neurological, autonomic, and toxic effects.
# The animals were observed continuously for one hour and if no signs of pharmacological or toxicological activity were present at the end of the first hour, they were intermittently checked for activity every fifteen minutes thereafter for two consecutive hours. […] Subsequent dose levels below 300 mg/kg were not administered in this case. Alternatively, if demonstrable pharmacological changes occurred within the first three hours after administration of the drug at 300 mg/kg, the subsequent doses were administered and the animals observed for changes in overt behavior. The observation period begins immediately following the injection and the animals are then continuously observed for three hours and intermittently checked thereafter for forty-eight hours. The animals were observed and signs and symptoms of pharmacological activity were recorded continuously until no further symptoms developed and until the symptoms that had appeared were no longer present. […] It was very important that the animals were free to move about for evaluation of spacial orientation, alertness, and spontaneous motor activity. The animals were systematically observed and manipulated to measure the onset, peak effect, duration and character of drug action.
# The major characteristics observed relative to central nervous system activity for the compounds indicated are summarized in the following Table IV.
# [6] = Mus musculus, po, 0.25 h, 15 Min., read-out: Phenylquinone Writhing Assay (% Control), percent analgesia
# [7] = Mus musculus, po, 0.5 h, 30 Min., read-out: Phenylquinone Writhing Assay (% Control), percent analgesia
# [8] = Mus musculus, po, 1 h, 60 Min, read-out: Phenylquinone Writhing Assay (% Control), percent analgesia
# [9] = Rattus norvegicus, read-out: % Reduction of Edema
compound,measurement,setting,value
"3-Methylhydrazino-5-Phenyl-1,2,4-Triazine [Example 3A]",Mean Drop (systolic blood pressure),[1]; 4 hr.,0 mm/Hg.
same,Mean Drop (systolic blood pressure),[1]; 24 hr.,49 mm/Hg.
same,Mean Drop (systolic blood pressure),[1]; second 4 hr. column (after second dose),56 mm/Hg.
same,Mean Drop (systolic blood pressure),[1]; second 24 hr column (after second dose),92 mm/Hg.
same,"Phenylquinone Writhing Assay (% Control), percent analgesia","[2]; 100 mg/kg oral, 15 Min.",60%
same,"Phenylquinone Writhing Assay (% Control), percent analgesia","[2]; 100 mg/kg oral, 30 Min.",30%
same,"Phenylquinone Writhing Assay (% Control), percent analgesia","[2]; 100 mg/kg oral, 60 Min",30%
same,% Reduction of Edema,[3]; 100 mg/kg oral,76%
"Cc1nnc(S)nc1C [3-mercapto-5,6-dimethyl-1,2,4-triazine]",tuberculostatic activity,tuberculostatic,tuberculostatic in vitro
"CC(=O)Oc1ccccc1C(=O)O [Aspirin, reference compound]",temps. at 191/2 hrs.,yeast induced fever,37.8
same,temps. at 18 hrs. (Test Compounds Administered),yeast induced fever,38.8
same,temps. at 0 hr.,yeast induced fever,38.0
"COc1nncc(-c2ccccc2)n1 [Example 2, 3-methoxy-5-phenyl-1,2,4-triazine]",temps. at 191/2 hrs.,yeast induced fever,35.3
same,temps. at 18 hrs. (Test Compounds Administered),yeast induced fever,39.0
same,temps. at 0 hr.,yeast induced fever,38.1
same,antipyretic activity,yeast induced fever; compared to aspirin,comparable in activity to aspirin
same,responders at 12.5 mg/kg,[2]; [6],10%
same,responders at 25 mg/kg,[2]; [6],40%
same,responders at 50 mg/kg,[2]; [6],90%
same,responders at 12.5 mg/kg,[2]; [7],30%
same,responders at 25 mg/kg,[2]; [7],60%
same,responders at 50 mg/kg,[2]; [7],80%
same,responders at 12.5 mg/kg,[2]; [8],30%
same,responders at 25 mg/kg,[2]; [8],50%
same,responders at 50 mg/kg,[2]; [8],70%
same,Adjuvant-Arthritis Assay (% Reduction),"[4]; 40 mg/kg oral once daily, Day 3, developing disease",39%
same,Adjuvant-Arthritis Assay (% Reduction),"[4]; 40 mg/kg oral once daily, Day 10, developing disease",23%
same,Adjuvant-Arthritis Assay (% Reduction),"[4]; 40 mg/kg oral once daily, Day 17, developing disease",0%
same,Adjuvant-Arthritis Assay (% Reduction),"[4]; 80 mg/kg oral once daily, Day 3, developing disease",40%
same,Adjuvant-Arthritis Assay (% Reduction),"[4]; 80 mg/kg oral once daily, Day 10, developing disease",18%
same,Adjuvant-Arthritis Assay (% Reduction),"[4]; 80 mg/kg oral once daily, Day 17, developing disease",0%
same,Adjuvant-Arthritis Assay (% Reduction),"[4]; 120 mg/kg oral once daily, Day 3, developing disease",30%
same,Adjuvant-Arthritis Assay (% Reduction),"[4]; 120 mg/kg oral once daily, Day 10, developing disease",13%
same,Adjuvant-Arthritis Assay (% Reduction),"[4]; 120 mg/kg oral once daily, Day 17, developing disease",21%
same,inhibition in vivo at 200 mg/kg,"[3]; Rattus norvegicus, 200 mg/kg oral, read-out: % Reduction of Edema",86%
"NNc1nncc(-c2ccccc2)n1 [Example 3, 3-hydrazino-5-phenyl-1,2,4-triazine]",antihypertensive activity,antihypertensive,moderately active antihypertensive agent
same,responders at 100 mg/kg,"[2]; Mus musculus, po, 0.25 h, 100 mg/kg oral, 15 Min., read-out: Phenylquinone Writhing Assay (% Control), percent analgesia",100%
same,responders at 30 mg/kg,"[2]; Mus musculus, po, 0.5 h, 30 mg/kg oral, 30 Min., read-out: Phenylquinone Writhing Assay (% Control), percent analgesia",30%
same,responders at 70 mg/kg,"[2]; Mus musculus, po, 0.5 h, 70 mg/kg oral, 30 Min., read-out: Phenylquinone Writhing Assay (% Control), percent analgesia",90%
same,CNS Activity,[5],Antidepressant
same,inhibition in vivo at 40 mg/kg,[3]; [9],55%
"O=C(NNc1nncc(-c2ccccc2)n1)C(F)(F)F [Example 7, 3-trifluoroacetyl hydrazino-5-phenyl-1,2,4-triazine]",duration of activity (hypotensive),"[1]; rat, in vivo",long duration of activity
same,onset of action (hypotensive),"[1]; rat, in vivo",advantageous rapid onset of action
same,responders at 15 mg/kg,[2]; [6],50%
same,responders at 15 mg/kg,[2]; [8],10%
same,Adjuvant-Arthritis Assay (% Reduction),"[4]; 50 mg/kg oral once daily, Day 3, developing disease",30%
same,Adjuvant-Arthritis Assay (% Reduction),"[4]; 50 mg/kg oral once daily, Day 10, developing disease",30%
same,Adjuvant-Arthritis Assay (% Reduction),"[4]; 50 mg/kg oral once daily, Day 17, developing disease",39%
same,Adjuvant-Arthritis Assay (% Reduction),"[4]; 50 mg/kg oral, Day 20, established disease",4%
same,Adjuvant-Arthritis Assay (% Reduction),"[4]; 50 mg/kg oral, Day 27, established disease",24%
same,Adjuvant-Arthritis Assay (% Reduction),"[4]; 50 mg/kg oral, Day 31, established disease",29%
same,inhibition in vivo at 150 mg/kg,"[3]; Rattus norvegicus, 150 mg/kg oral, read-out: % Reduction of Edema",41%
"Cc1nnc(NN)nc1C [Example 25, 3-hydrazino-5,6-dimethyl-1,2,4-triazine]",responders at 10 mg/kg,[2]; [6],20%
same,responders at 10 mg/kg,[2]; [7],10%
same,responders at 12.5 mg/kg,[2]; [7],20%
same,responders at 25 mg/kg,[2]; [7],90%
same,CNS Activity,[5],Antidepressant
same,inhibition in vivo at 40 mg/kg,[3]; [9],46%
